According to patent publication US9605013B2, “Derivatives of hemin with antibacterial and antiviral activity” (OBSCHESTVO S OGRANICHENNOI OTVETSTVENNOSTIYU …, priority 2011, dated 2017):

How the values were obtained:
[1] = tested on: Herpes Simplex Virus type 2 strain G (No. VR-734 ATCC); test: Antiviral activity, virus cytopathogenic action in Vero cells; type: cell-based; set-up: key: 0: CPA (cytopathogenic action) is not detected; 1: up to 25% virus-infected monolayer; from 25% to 50%; 3: from 50% to 75%; 4: from 75% to 100%; settings: 48 hours
Description: […] used in the study were used Herpes Simplex Virus type 1 (the Collection of Microorganisms at the Scientific Research Institute of Virology, strain EC), Herpes Simplex Virus type 2 strain G (No. VR-734 ATCC), and human cytomegalovirus strain AD169 (No. VR-538 ATCC). Herpes Simplex viruses type 1 and type 2 were cultured in Vero cells. The cells were incubated in MEM Eagle growth medium (MEM, BioloT, St-Petersburg, 1.3.3) supplemented with 10% fetal bovine serum (BioloT, St-Petersburg, 1.3.12) in Sanyo MCO-15AC gas-flow thermostat (37° C., 5% CO2) (Tokyo, Japan). A seed dose was 2×10^5 cells/ml in the starting inoculum or 2×10^4 cells/well. Herpes Simplex viruses were cultured under the same conditions in the MEM medium without serum (maintenance medium). Starting viral titers were 10^7 TCID50/ml.
For DMSO-soluble preparations, stock solutions were prepared in a concentration of 10 mM in DMSO. For water-soluble preparations, a stock solution prepared had the same concentration in the MEM medium (Minimal Essential Medium) for cell cultures. To control cytotoxicity (see below), the stock solution was diluted in the medium to a concentration of 100 μM and ten-fold serial dilutions of the preparations were made in the MEM medium (for DMSO-soluble compounds—in the MEM medium comprising 3% DMSO). The following concentrations of the preparations were used in the study of […]: if toxicity was not found, the concentrations of 100 μM preparations were 100, 10 and 1 μM; if toxicity was detected, the concentrations of 100 μM preparations were 10, 1, and 0.1 μM. Acyclovir (10 μg/ml) was used for Herpes Simplex viruses of both types as a reference preparation to control the viral model validity.
To study antiviral activity, plate wells with a cell monolayer were added with the preparations in an amount of 0.1 ml/well. To compensate a reduction in the concentration of the preparations, which takes place in the following addition of viruses, twofold concentrations of compounds (i.e. 200, 20 and 2 or 20, 2 and 0.2 μM for […] concentrations of 100 μM preparations, respectively) were used, incubated for an hour and then were infected with the examined 0.1 ml/well viruses in doses 1, 10 and 100 TCID50 (50% tissue infectious dose).
The virus-specific cytogenic action was manifested in an increase in the size of cells, their rounding, and detachment from a substrate. These morphological characteristics served as their marked difference from the cells subjected to a toxic action of high concentrations of the examined preparations. The latter acquired spindle-like shape, lost contacts with neighboring cells of the monolayer, and their boundaries became more distinct.
Intensity of the virus-specific changes in the cells were semi-quantified using a 4-score system: 0—CPA (cytopathogenic action) is not detected; 1—up to 25% virus-infected monolayer; 2—from 25% to 50%; 3—from 50% to 75%; and 4—from 75% to 100%. The antiviral activity of a compound was evaluated according to their ability to reduce the manifestation of cytopathogenic action in the plate wells compared to the control values. Differences with the control values by 1 score and more were considered to be significant.

[2] = HSV-2, virus dose 1, concentration 0.1 μM
[3] = HSV-2, virus dose 1, concentration 1 μM
[4] = HSV-2, virus dose 1, concentration 10 μM
[5] = HSV-2, virus dose 10, concentration 0.1 μM
[6] = HSV-2, virus dose 10, concentration 1 μM
[7] = HSV-2, virus dose 10, concentration 10 μM
[8] = HSV-2, virus dose 100, concentration 0.1 μM
[9] = HSV-2, virus dose 100, concentration 1 μM
[10] = HSV-2, virus dose 100, concentration 10 μM

Compound: 6,7-bis-(Amide N^α-Glycyl)-Protohemin (IX) [IV]
- manifestation of the virus CPA [1, 2]: 1 (up to 25% virus-infected monolayer)
- manifestation of the virus CPA [1, 3]: 0.5 scores
- manifestation of the virus CPA [1, 4]: 0^1
- manifestation of the virus CPA [1, 5]: 2 (from 25% to 50%)
- manifestation of the virus CPA [1, 6]: 2 (from 25% to 50%)
- manifestation of the virus CPA [1, 7]: 0^1
- manifestation of the virus CPA [1, 8]: 3 (from 50% to 75%)
- manifestation of the virus CPA [1, 9]: 3 (from 50% to 75%)
- manifestation of the virus CPA [1, 10]: 0^1
- water solubility (Water solubility): water-insoluble

Compound: 6,7-bis-[(Diamide N^α-L-Arginyl)-L-glutamyl]-Protohemin (IX)
- manifestation of the virus CPA [1, 2]: 1 (up to 25% virus-infected monolayer)
- manifestation of the virus CPA [1, 3]: 0.5 scores
- manifestation of the virus CPA [1, 4]: 0^1
- manifestation of the virus CPA [1, 5]: 2 (from 25% to 50%)
- manifestation of the virus CPA [1, 6]: 2 (from 25% to 50%)
- manifestation of the virus CPA [1, 7]: 1^1 (up to 25% virus-infected monolayer)
- manifestation of the virus CPA [1, 8]: 3 (from 50% to 75%)
- manifestation of the virus CPA [1, 9]: 3 (from 50% to 75%)
- manifestation of the virus CPA [1, 10]: 3 (from 50% to 75%)
- water solubility (Water solubility): water-soluble

Compound: C=CC1=C(C)c2cc3[n-]c(cc4[n-]c(cc5nc(cc1n2)C(C)=C5C=C)c(C)c4CCC(=O)N[C@@H](CCCNC(=N)N)C(N)=O)c(CCC(=O)N[C@@H](CCCNC(=N)N)C(N)=O)c3C.[Cl-].[Fe+3] [II, 6,7-bis-(Amide N^α-Arginyl)-Protohemin (IX)]
- manifestation of the virus CPA [1, 2]: 1 (up to 25% virus-infected monolayer)
- manifestation of the virus CPA [1, 3]: 0.5 scores
- manifestation of the virus CPA [1, 4]: 0^1
- manifestation of the virus CPA [1, 5]: 1.5 scores
- manifestation of the virus CPA [1, 6]: 2 (from 25% to 50%)
- manifestation of the virus CPA [1, 7]: 1^1 (up to 25% virus-infected monolayer)
- manifestation of the virus CPA [1, 8]: 3 (from 50% to 75%)
- manifestation of the virus CPA [1, 9]: 3 (from 50% to 75%)
- manifestation of the virus CPA [1, 10]: 3 (from 50% to 75%)
- water solubility (Water solubility): water-soluble

Compound: C=CC1=C(C)c2cc3[n-]c(cc4[n-]c(cc5nc(cc1n2)C(C)=C5C=C)c(C)c4CCC(=O)N[C@@H](CO)C(N)=O)c(CCC(=O)N[C@@H](CO)C(N)=O)c3C.[Cl-].[Fe+3] [V, 6,7-bis-(Amide N^α-Seryl)-Protohemin (IX)]
- manifestation of the virus CPA [1, 2]: 1 (up to 25% virus-infected monolayer)
- manifestation of the virus CPA [1, 3]: 0.5 scores
- manifestation of the virus CPA [1, 4]: 0^1
- manifestation of the virus CPA [1, 5]: 2 (from 25% to 50%)
- manifestation of the virus CPA [1, 6]: 2 (from 25% to 50%)
- manifestation of the virus CPA [1, 7]: 0^1
- manifestation of the virus CPA [1, 8]: 3 (from 50% to 75%)
- manifestation of the virus CPA [1, 9]: 3 (from 50% to 75%)
- manifestation of the virus CPA [1, 10]: 2^1 (from 25% to 50%)
- water solubility (Water solubility): water-insoluble

Compound: C=CC1=C(C)c2cc3[n-]c(cc4[n-]c(cc5nc(cc1n2)C(C)=C5C=C)c(C)c4CCC(=O)N[C@@H](CO)C(=O)O)c(CCC(=O)N[C@@H](CO)C(=O)O)c3C.[Cl-].[Fe+3] [VI, 6,7-bis-(N^α-Seryl]-Protohemin (IX)]
- manifestation of the virus CPA [1, 2]: 1 (up to 25% virus-infected monolayer)
- manifestation of the virus CPA [1, 3]: 1 (up to 25% virus-infected monolayer)
- manifestation of the virus CPA [1, 4]: 0^1
- manifestation of the virus CPA [1, 5]: 2 (from 25% to 50%)
- manifestation of the virus CPA [1, 6]: 2 (from 25% to 50%)
- manifestation of the virus CPA [1, 7]: 0^1
- manifestation of the virus CPA [1, 8]: 3 (from 50% to 75%)
- manifestation of the virus CPA [1, 9]: 3 (from 50% to 75%)
- manifestation of the virus CPA [1, 10]: 2^1 (from 25% to 50%)
